The results in this text go back to ChEMBL document CHEMBL5120893, “A Neuropeptide Y/F-like Polypeptide Derived from the Transcriptome of Turbinaria peltata Suppresses LPS-Induced Astrocytic Inflammation” (J Nat Prod, 2022).

SMILES strings stand for the structures. The source made the active and inactive calls. No cut-off for these calls is given here. Residues, ends and D or L forms follow the SMILES beside them.

The subject of data set [1] is C8-D1A. In words: Cytotoxicity against mouse C8D1A cells assessed as cell viability at 0.75 to 50 uM after 24 hrs by MTT assay. The conditions noted are these: dose 0.75-50 µM. In kind it is toxicity, cell-based. For orientation: Tetrazolium assays rely on reduction of a dye to a coloured formazan, in cell work by metabolically active cells.
In data set [2] the test system is C8-D1A. Kind of data set: Inhibition of LPS-induced mouse C8D1A cell viability loss assessed as restoration of cell viability at 0.75 to 6 uM after 24 hrs by MTT assay. It is filed as functional, cell-based. The conditions noted are these: dose 0.75-6 µM.
Data set [3] deals with C8-D1A. Kind of data set: Antiinflammatory activity against mouse C8D1A cells assessed as inhibition of LPS-induced NO production measured after 24 hrs by Griess method. In kind it is functional, cell-based. The conditions noted are these: dose 0.75-6 µM, DDE = dose-dependent effect. In general terms: Griess reagent forms a coloured azo dye with nitrite.
The subject of data set [4] is C8-D1A. Kind of data set: Antiinflammatory activity against mouse C8D1A cells assessed as inhibition of LPS-induced iNOS production by Western blotting analysis. It is filed as functional, cell-based. The note with it: dose 0.75-3 µM, DDE = dose-dependent effect. On the technique in general: In western blotting, separated proteins are transferred to a membrane and probed.

Data set [5] concerns C8-D1A. In words: Antiinflammatory activity against mouse C8D1A cells assessed as inhibition of LPS-induced ROS production measured after 24 hrs by fluorescent CM-H2DCFDA based flow cytometry. It is filed as functional, cell-based. The note with it: dose 0.75-3 µM, DDE = dose-dependent effect.
Data set [6] concerns C8-D1A. In words: Antiinflammatory activity against mouse C8D1A cells assessed as inhibition of LPS-induced IL-6 production at 0.75 to 3 uM pretreated for 4 hrs followed by LPS stimulation measured after 24 hrs by ELISA. It is filed as functional, cell-based. The note with it: dose 0.75-3 µM, time 28.0 hrs.
Data set [7] has as its system C8-D1A. Kind of data set: Antiinflammatory activity against mouse C8D1A cells assessed as inhibition of LPS-induced IL-1beta production at 0.75 to 3 uM pretreated for 4 hrs followed by LPS stimulation measured after 24 hrs by ELISA. It is filed as functional, cell-based. The note with it: dose 0.75-3 µM, time 28.0 hrs.
In data set [8] the test system is C8-D1A. Kind of data set: Antiinflammatory activity against mouse C8D1A cells assessed as inhibition of LPS-induced TNFalpha production at 0.75 to 3 uM pretreated for 4 hrs followed by LPS stimulation measured after 24 hrs by ELISA. In kind it is functional, cell-based. The conditions noted are these: dose 0.75-3 µM, time 28.0 hrs.
Data set [9] concerns C8-D1A. In words: Antiinflammatory activity against mouse C8D1A cells assessed as inhibition of LPS-induced IL-6 mRNA expression at 0.75 to 3 uM pretreated for 4 hrs followed by LPS stimulation measured after 24 hrs by real time PCR analysis. In kind it is functional, cell-based. The conditions noted are these: dose 0.75-3 µM, time 28.0 hrs.
The subject of data set [10] is C8-D1A. Kind of data set: Antiinflammatory activity against mouse C8D1A cells assessed as inhibition of LPS-induced IL-1beta mRNA expression at 0.75 to 3 uM pretreated for 4 hrs followed by LPS stimulation measured after 24 hrs by real time PCR analysis. In kind it is functional, cell-based. The note with it: dose 0.75-3 µM, time 28.0 hrs.
For data set [11], the system named is C8-D1A. Kind of data set: Antiinflammatory activity against mouse C8D1A cells assessed as inhibition of LPS-induced TNFalpha mRNA expression at 0.75 to 3 uM pretreated for 4 hrs followed by LPS stimulation measured after 24 hrs by real time PCR analysis. In kind it is functional, cell-based. The conditions noted are these: dose 0.75-3 µM, time 28.0 hrs.
Data set [12] relates to C8-D1A. Kind of data set: Antiinflammatory activity against mouse C8D1A cells assessed as inhibition of LPS-induced GFAP production at 0.75 to 3 uM pretreated for 4 hrs followed by LPS stimulation measured after 24 hrs by DMI-8 microscopy. In kind it is functional, cell-based. The conditions noted are these: dose 0.75-3 µM, time 28.0 hrs.
For data set [13], the target named is Inhibitor of nuclear factor kappa-B kinase subunit alpha/beta (Mus musculus) (UniProt Q60680+O88351). Kind of data set: Inhibition of IKKalpha/beta phosphorylation at Ser176/180 in LPS-induced mouse C8D1A cells at 0.75 to 3 uM pretreated for 4 hrs followed by LPS stimulation measured after 24 hrs by Western blotting analysis. It is filed as cell-based. The conditions noted are these: dose 0.75-3 µM.

In data set [14] the target is T1, Inhibitor of nuclear factor kappa-B kinase subunit beta (Mus musculus) (UniProt O88351).
T1 sequence (whole entry): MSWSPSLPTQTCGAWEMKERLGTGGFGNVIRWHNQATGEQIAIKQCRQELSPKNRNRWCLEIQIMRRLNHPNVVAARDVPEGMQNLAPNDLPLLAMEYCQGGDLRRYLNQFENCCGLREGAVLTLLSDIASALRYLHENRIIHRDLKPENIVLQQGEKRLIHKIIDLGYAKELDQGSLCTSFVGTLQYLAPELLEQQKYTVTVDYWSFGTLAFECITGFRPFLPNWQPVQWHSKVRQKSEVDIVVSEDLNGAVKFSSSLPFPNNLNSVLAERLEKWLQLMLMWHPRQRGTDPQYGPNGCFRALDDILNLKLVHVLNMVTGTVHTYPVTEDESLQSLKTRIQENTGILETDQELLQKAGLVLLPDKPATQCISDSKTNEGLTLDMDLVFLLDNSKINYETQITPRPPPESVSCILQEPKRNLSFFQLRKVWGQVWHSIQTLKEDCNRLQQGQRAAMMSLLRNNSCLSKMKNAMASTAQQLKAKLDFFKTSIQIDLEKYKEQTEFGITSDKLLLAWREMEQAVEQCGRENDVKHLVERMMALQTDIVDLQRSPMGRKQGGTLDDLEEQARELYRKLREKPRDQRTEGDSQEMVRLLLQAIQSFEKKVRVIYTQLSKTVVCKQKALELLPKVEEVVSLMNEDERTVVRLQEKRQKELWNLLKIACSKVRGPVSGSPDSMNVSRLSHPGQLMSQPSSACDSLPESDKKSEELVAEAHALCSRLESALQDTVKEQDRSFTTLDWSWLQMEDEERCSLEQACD
Kind of data set: Inhibition of IkappaBalpha phosphorylation at […] in LPS-induced mouse C8D1A cells at 0.75 to 3 uM pretreated for 4 hrs followed by LPS stimulation measured after 24 hrs by Western blotting analysis. In kind it is cell-based. The note with it: dose 0.75-3 µM.

A further data set concerns C8D1A. In words: Inhibition of NFkappaB p65 phosphorylation at […] in LPS-induced mouse C8D1A cells at 0.75 to 3 uM pretreated for 4 hrs followed by LPS stimulation measured after 24 hrs by Western blotting analysis. It is filed as cell-based. The conditions noted are these: dose 0.75-3 µM.
Data set [15] concerns C8-D1A. Kind of data set: Effect on LPS-induced inflammasome activation in mouse C8D1A cells assessed as reduction in NLRP3 protein level at 0.75 to 3 uM by Western blotting analysis. In kind it is functional, cell-based. The note with it: dose 0.75-3 µM.
For data set [16], the system named is C8-D1A. In words: Effect on LPS-induced inflammasome activation in mouse C8D1A cells assessed as reduction in caspase 1 protein level at 0.75 to 3 uM by Western blotting analysis. It is filed as functional, cell-based. The conditions noted are these: dose 0.75-3 µM.
In data set [17] the test system is C8-D1A. Kind of data set: Antiinflammatory activity against mouse C8D1A cells assessed as inhibition of LPS-induced NO production at 3 uM measured after 24 hrs by Griess method. In kind it is functional, cell-based.
For data set [18], the system named is C8-D1A. In words: Antiinflammatory activity against mouse C8D1A cells assessed as inhibition of LPS-induced iNOS expression at 3 uM by Western blotting analysis. In kind it is functional, cell-based.
For data set [19], the system named is C8-D1A. In words: Antiinflammatory activity against mouse C8D1A cells assessed as inhibition of LPS-induced NO production at 3 uM measured after 24 hrs in presence of Y1R antagonist BIIE-0246 by Griess method. It is filed as functional, cell-based.
In data set [20] the test system is C8-D1A. In words: Antiinflammatory activity against mouse C8D1A cells assessed as inhibition of LPS-induced iNOS expression at 3 uM in presence of Y1R antagonist BIIE-0246 by Western blotting analysis. In kind it is functional, cell-based.

In the case of `CC[C@H](C)[C@H](NC(=O)[C@@H](NC(=O)[C@@H](NC(=O)[C@H](Cc1ccc(O)cc1)NC(=O)[C@H](Cc1ccc(O)cc1)NC(=O)CNC(=O)[C@H](C)NC(=O)[C@H](CC(C)C)NC(=O)[C@H](CC(=O)O)NC(=O)[C@H](CO)NC(=O)[C@H](CC(C)C)NC(=O)[C@H](Cc1ccc(O)cc1)NC(=O)[C@H](C)NC(=O)[C@H](CC(N)=O)NC(=O)[C@H](CC(C)C)NC(=O)[C@H](CCC(=O)O)NC(=O)[C@H](C)NC(=O)[C@H](CCSC)NC(=O)[C@H](CO)NC(=O)[C@H](CCCCN)NC(=O)[C@H](Cc1ccccc1)NC(=O)[C@H](CO)NC(=O)[C@H](CCC(=O)O)NC(=O)[C@@H]1CCCN1C(=O)[C@H](CCCNC(=N)N)NC(=O)[C@H](CCCCN)NC(=O)[C@@H]1CCCN1C(=O)[C@@H]1CCCN1C(=O)CNC(=O)CNC(=O)[C@@H](N)C(C)C)[C@@H](C)O)C(C)C)C(=O)NCC(=O)N[C@@H](CCCNC(=N)N)C(=O)N1CCC[C@H]1C(=O)N[C@@H](CCCNC(=N)N)C(=O)N[C@@H](Cc1ccccc1)C(=O)O` (H-VGGPPKRPESFKSMAELNAYLSDLAGYYTVIGRPRF-OH), the Activity result with C8-D1A [1] was “Non-Toxic”. The result in the data set with C8-D1A [2] was Active. The inhibition entry in the data set with C8-D1A [3], in the data set with C8-D1A [4] and in the data set on C8-D1A [5] was “Dde” each time. The inhibition result with C8-D1A [6], with C8-D1A [7], with C8-D1A [8], in the data set with C8-D1A [9], in the data set with C8-D1A [10] and in the data set with C8-D1A [11] was “Active” throughout. The inhibition entry (in the data set on C8-D1A [12]; in data set [13]; in data set [14]; in the data set on C8D1A; in the data set with C8-D1A [15]; with C8-D1A [16]) was “Active” in each case. Moreover, the inhibition result in the data set with C8-D1A [17], in the data set with C8-D1A [18], in the data set on C8-D1A [19] and in the data set on C8-D1A [20] was “Active” in each case.
